The numbers were not newly measured in US20240115517A1, “COMPOSITIONS AND METHODS FOR IMPROVING SKIN BARRIER” (LYCORED LTD., priority 0001, published 2024), which cites them from elsewhere.

For data set [1] the following is noted: 4 mg/day, 9 weeks.
Data set [2] deals with 36 male subjects.

Turning to `CC1=C(/C=C/C(C)=C/C=C/C(C)=C/C=C/C=C(C)/C=C/C=C(C)/C=C/C2=C(C)C(=O)[C@@H](O)CC2(C)C)C(C)(C)C[C@H](O)C1=O` [astaxanthin, Astaxanthin], in data set [1], the “minimal erythema dose of UV” value is “increase”. The “increase of TEWL at the site of irradiation versus control group” value in data set [1] (after UV irradiation) was “significantly less”. Besides, the “TEWL compared to controls” value in data set [2] (6 mg per day, 6 weeks) is “significantly reduced”. Further, the “minor wrinkles, age spot size, elasticity, hydration” value in data set [2] (astaxanthin supplementation) is “improvements”.
